# Experiments:
# [1] = literature values; cited from earlier work
# [2] = tested on: serum calcium concentration; test: Biological assay of calcitonin analogs in vivo: reduction of serum calcium, 2×2 parallel line assay against synthetic salmon calcitonin standard; design: species or system Rats; conditions: independently determined content of the standard
# Experimental: The biological potency of des-21-threonine-salmon calcitonin was determined by comparing the reduction of serum calcium concentration which followed administration by graded doses of des-Thr^21 -SCT and synthetic salmon calcitonin standard. Rats were divided into four groups of seven animals, and each group was assigned at random to a dose of standard or test solution. Low and high doses were chosen from the linear portion of the dose-response curve. For the salmon calcitonin standard, the values were 0.7 and 2.1 ng. peptide/100 g. body weight (BW). This dose approximates 3 and 9 MU/100 g. BW. Peptides were given by subcutaneous injection (0.2 ml/100 g. BW) and blood was withdrawn 1 hour later for serum calcium determination. Sera are processed and analyzed within two hours of collection. […]. Results were analyzed by a 2×2 parallel line assay [Gaddum, J. H., J. Pharm. Pharmacol., 6, 345 (1953)]. The standard salmon calcitonin used was independently determined to contain greater than 4,000 IU/mg. des-Thr^21 -SCT assayed at 5355 IU/mg.
Molecule,hypocalcemic potency [1],potency of the standard salmon calcitonin used [2]
"(1,7-α-L-aminosuberic acid)eel calcitonin",about 3400 IU/mg.,–
"CC(C)C[C@H](NC(=O)[C@H](CCCCN)NC(=O)CNC(=O)[C@H](CC(C)C)NC(=O)[C@@H](NC(=O)[C@@H]1CSSC[C@H](N)C(=O)N[C@@H](CO)C(=O)N[C@@H](CC(N)=O)C(=O)N[C@@H](CC(C)C)C(=O)N[C@@H](CO)C(=O)N[C@@H]([C@@H](C)O)C(=O)N1)C(C)C)C(=O)N[C@@H](CO)C(=O)N[C@@H](CCC(N)=O)C(=O)N[C@@H](CCC(=O)O)C(=O)N[C@@H](CC(C)C)C(=O)N[C@@H](Cc1c[nH]cn1)C(=O)N[C@@H](CCCCN)C(=O)N[C@@H](CC(C)C)C(=O)N[C@@H](CCC(N)=O)C(=O)N[C@H](C(=O)N[C@@H](Cc1ccc(O)cc1)C(=O)N1CCC[C@H]1C(=O)N[C@@H](CCCNC(=N)N)C(=O)N[C@H](C(=O)N[C@@H](CC(N)=O)C(=O)N[C@H](C(=O)NCC(=O)N[C@@H](CO)C(=O)NCC(=O)N[C@H](C(=O)N1CCC[C@H]1C(N)=O)[C@@H](C)O)[C@@H](C)O)[C@@H](C)O)[C@@H](C)O [standard salmon calcitonin, Salmon calcitonin]",–,"greater than 4,000 IU/mg"
eel calcitonin [synthetic eel calcitonin],around 4300 IU/mg.,–

# From US4604237A, “Des-21-threonine-calcitonin” (Armour Pharmaceutical Company, priority 1984, dated 1986)
